Assay results reported in patent US20080182834A1, “Multi-Nuclear Metal Complexes Partially Encapsulated by Cucurbit[7-12]Urils” (NEWSOUTH INNOVATIONS PTY LIMITED, priority 2004, published 2008).
pIC50: −log10 of the molar value.

What was measured:
[1] = test system: L1210 murine leukaemia cells; assay: In vitro cytotoxic activity against L1210 murine leukaemia cells; assay type: cell-based; conditions: concentration required to inhibit cell growth by 50%
[2] = test system: L1210/DDP cisplatin resistant cells; assay: In vitro cytotoxic activity against cisplatin resistant L1210/DDP cells; assay type: cell-based, murine; conditions: concentration required to inhibit cell growth by 50%

| Substance | pIC50 [1] | pIC50 [2] |
| --- | --- | --- |
| {trans-diamminebis{trans-diamminechloro(μ-1,6-hexanediamine)platinum(II)}platinum(II)}nitrate [BBR3464] | 7.24 | 7.61 |
| {trans-diamminechloro(μ-dipyrazolylmethane)platinum(II)}chloride [Di-Pt] | 5.42 | 5.06 |
| {trans-diamminechloro(μ-spermidine)platinum(II)}chloride [BBR3571] | 7.94 | 8.12 |
